The values that follow come from patent US20140322771A1, “Lipid Production” (THE UNIVERSITY OF QUEENSLAND, priority 2010, published 2014).

“Also recorded” adds a separate entry of the source.

In series [1] the test system is S. cerevisiae WT and sld mutant strains. Kind of series: Formation of supersized lipid droplets (SLDs) in yeast, Nile red staining and fluorescence microscopy. The series is classed as cell-based, Saccharomyces cerevisiae. The protocol: To screen for yeast mutants that generate supersized LDs, cells were cultured in synthetic complete media (0.67% yeast nitrogen base, 2% dextrose, and amino acids) in 96-well plates at 30° C. till stationary phase. For TetO7-regulated strains, 15 μg/ml doxycycline was added to repress specific genes. Cells were stained with 20 μg/ml Nile red for LDs and observed by fluorescence microscopy. Yeast strains found to contain SLDs were recultured in synthetic complete media with aeration in 10 ml culture tubes to confirm the phenotype. These strains were also grown in YPD media (1% yeast extract, 2% peptone, and 2% dextrose) to examine the morphology of LDs.
For phospholipid precursor treatment, synthetic complete medium was supplemented with 1 mM choline, 1 mM ethanolamine, or 75 μM inositol.
Fluorescent imaging was performed under a Leica CTR5500 microscope (Wetzlar, Germany) with an EL6000 fluorescent lamp. Images were taken with a DFC300 FX digital camera and a Leica LAS AF software. Yeast cells were viewed under a ×100/1.30 oil immersion objective lens. A 450-490-nm bandpass excitation filter, a 510 dichromatic mirror, and a 515-nm longpass emission filter (Leica filter cube I3) were chosen to observe Nile red-stained LDs. For statistical presentation of the percentage of cells containing supersized LDs, 200 cells were observed and percentage was calculated. The experiments were done in triplicates and the result was shown as mean±SD. Mammalian LDs were stained with Bodipy 493/503 (Invitrogen) and observed with a 470/40-nm bandpass excitation filter, a 500-nm dichromatic mirror, and a 525/50-nm bandpass emission filter (Leica filter cube GFP).

The subject of series [2] is lipid droplets of S. cerevisiae mutant strains. Kind of series: Lipidomic analysis of lipid droplets isolated from yeast (PE/PL and PL/TAG ratio). The class given is cell-based, Saccharomyces cerevisiae. The protocol:
Lipid droplets were isolated as described in Fei et al. (Fei et al., (2008), “Fld1p, a functional homologue of human seipin, regulates the size of lipid droplets in yeast”, J Cell Biol 180: 473-482).
Lipids were extracted from zymolase-digested lyophilized yeast cells, isolated ER microsomes or lipid droplets. Briefly 900 μl ice-clod chlorofom:methanol (1:2) was added to samples. Mixtures were vigorously vortexed for 1 min, and incubated for 2 h in vacuum container with rotary shaking at 4° C. Then 400 μl ice-cold water and 300 μl chloroform were added, vortexed and incubated on ice for 1 min. After centrifugation at 12000 rpm for 3 min at 4° C., the lower organic phase was collected. Subsequently, 50 μl 1 M HCl and 500 μl chloroform were added to the remainder, vortexed, and incubated on ice for 3 min. The lower organic phase was also collected after centrifugation at 12000 rpm for 3 min at 4° C., and combined with the first extract. The extracted lipids were blown dry with nitrogen gas, and resuspended in solvent for mass spectrometry analysis.
Lipidomic analysis, and quantitative measurement of neutral lipids via thin layer chromatography (TLC) were performed as described in Fei et al. (Fei et al., (2008), “Fld1p, a functional homologue of human seipin, regulates the size of lipid droplets in yeast”, J Cell Biol 180: 473-482) and Low et al. (Low et al., (2008), “Caspase-dependent and -independent lipotoxic cell-death pathways in fission yeast”, J Cell Sci 121: 2671-2684). TLC plates were developed in chloroform/methanol/water (65:25:4) to separate phospholipid species.

Series [3] has as its system Chlamydomonas homologue of CDS1p (gene C—30067). Description: Lipid droplet accumulation in Chlamydomonas after RNAi knockdown of the CDS1p homologue (Nile red). The class given is cell-based. Particulars: C. reinhardtii 21 gr transformed with hairpin RNAi construct, compared with wild type. Here is the method:
A hairpin RNAi construct was made by using 1st-3rd exon of the Chlamydomonas homologue of CDS1p driven by LC8 promoter. The gene name of the homologue is C—30067. The LC8 promoter is from Chlamydomonas.
This construct was transformed into Chlamydomonas using a glass-bead method. The selection marker for transformation was APHVIII, whose expression conferred resistant to paromomysin.
The survival strains on agar plates were screened by using Nile Red staining. 1 ug/ml final concentration of Nile red was used.
A Zeiss fluorescence microscope (Observer.Z1) with GFP filter was used for screening putative RNAi strains.

For the molecule `NCCO` [ethanolamine], the SLD formation result in series [1] (most of the mutants, SC media supplemented with 1 mM ethanolamine) is reported as “enhanced SLD formation in most of the mutants”. Further, the “proportion of PE on lipid droplets” value in series [2] (fld1Δ and cds1 cells, SC medium with ethanolamine) is on record as “significantly increased”. Moreover, the “PE to PL ratio of LDs” value in series [2] (ino4Δ cells, SC medium with ethanolamine) was “moderately increased”.

Turning to `O[C@H]1[C@H](O)[C@@H](O)[C@H](O)[C@@H](O)[C@H]1O` [inositol], the SLD formation result in series [1] (all sld mutants, SC media supplemented with 75 μM inositol) is recorded as “reduced the SLD formation in all mutants; also recorded: significant reduction of SLD formation”. The “biogenesis of supersized LDs” value in series [1] (ino4Δ cells, inositol addition, higher PE to PL ratio persisted) was “completely abolished the biogenesis of supersized LDs”. Further, the “phospholipid to TAG ratio of LDs” value in series [2] (cds1 or ino4Δ mutant, inositol supplementation) is on record as “did not increase”.

As for `CCCCCCCC/C=C\CCCCCCCC(=O)O` [oleate], the “number of cells producing SLD” value in series [1] (pah1Δ cells, supplement 1 mM each (about 3% of cells without supplement)) is given as “no effect”.

B1: CDS1 gene RNAi: hairpin RNAi construct of exons 1-3 of the Chlamydomonas CDS1p homologue (C—30067, SEQ ID NO: 41), LC8 promoter (nucleic acid)
DNA: ATGCGACCAAAACAACAAGCTCAGGTCACCGCCGCGGAGGACACCGCGTCGGAGCCGGAGCCGGAGCCCAAGCCCGTGGATCGAAAGTCGAGGCTCAGGTCCTTCCGCGTACGCACCATCTCCTCGGTCTTGCTCATCGGCGGGTTCATCGGCATCATTTGGGCGGGTCATGTGCCGCTTATGTTCTTCATCCTGCTACTCCAGTTCCTGGTGGCCCGGGAGCTCTTCCGCATCGCCTACATAGCGGAGAAGTCCAAACGCAGCC
modifications: LC8 promoter; Hairpin RNAi construct targetting Chlamydomonas sp. CDS1p Homologue
Turning to B1, the lipid droplet accumulation result in series [3] was “accumulated lipid droplet drastically”.
